This passage reports IC50 results from BindingDB's records for doi:10.7270/Q2N014XN (Srmlsc, 2007).

The target of the first experiment is T1, Diphosphomevalonate decarboxylase (Streptococcus pneumoniae serotype 2 (strain D39 / NCTC 7466), UniProt A0A0H2ZN59).
T1 sequence (A0A0H2ZN59 whole entry): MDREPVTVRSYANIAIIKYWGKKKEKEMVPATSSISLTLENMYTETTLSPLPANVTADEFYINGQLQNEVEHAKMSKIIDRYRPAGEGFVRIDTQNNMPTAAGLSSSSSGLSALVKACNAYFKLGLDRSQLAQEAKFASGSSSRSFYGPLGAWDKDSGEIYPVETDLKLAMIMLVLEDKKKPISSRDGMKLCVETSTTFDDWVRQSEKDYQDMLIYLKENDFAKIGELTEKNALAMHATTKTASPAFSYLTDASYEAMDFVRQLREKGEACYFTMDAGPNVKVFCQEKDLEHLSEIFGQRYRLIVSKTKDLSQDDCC
In words: S. pneumoniae DPM-DC inhibitor potency, dose response, biochemical, PK/LDH-coupled NADH fluorescence, hexokinase coupling counter-screen (AID 550).
Conditions: not given
`Cc1cc(=O)[nH]c2ccccc12` came in with an IC50 of over 10000 µM.

The compound `O=C(Nc1ccc2nc(-c3ccco3)c(-c3ccco3)nc2c1)N1CCCCCC1` registered an IC50 of 46.5 µM.

In turn, `CCc1cc2c(=O)c(-c3nc4ccccc4n3C)c(C)oc2c(CN2CCN(C)CC2)c1O` gave an IC50 of 49.5 µM.

In turn, `CN(C)CCSc1nnc(-c2ccccc2)o1` registered an IC50 of over 10000 µM.

`COc1ccc2[nH]c(=O)c(CN(CC3CCCO3)C(=O)Nc3ccccc3)cc2c1` (centres undefined) yielded an IC50 of 80.7 µM.

Compound `CCC(=O)N(Cc1cc2cc(OC)ccc2[nH]c1=O)c1cc(C)ccc1C` showed an IC50 of 88.5 µM.

Take `O=C(C1CCCCC1)N1CCC(c2nc3c(nnn3Cc3ccccc3Cl)c(=O)[nH]2)CC1`: the IC50 is over 10000 µM.

Compound `O=C(O)c1c(-c2ccccc2)c2oc3ccccc3c2[nH]c1=O` had an IC50 of 17 µM.

As for `CCc1cc2c(=O)c(-c3nc4ccccc4[nH]3)coc2cc1OC(=O)N1CCOCC1`, it took 189 µM to reach half-maximal inhibition (IC50).

With `Cn1cc(O)nc1NC(=O)C12CC3CC(CC(C3)C1)C2`, the IC50 is over 10000 µM.

In the case of `CCOC(=O)c1c(C)[nH]c(C(=O)COC(=O)c2ccccc2NC(=O)c2ccco2)c1C`, inhibition was half-maximal at 62.8 µM (IC50).

Consider `CCN(CC)C(=O)c1sc2[nH]c(-c3ccccn3)nc(=O)c2c1C`, for which the IC50 was 30 µM.

The compound `COc1cc(C2C3=C(CC(C)(C)CC3=O)N=C(C)C2C#N)cc(OC)c1O` (centres undefined) came in with an IC50 of over 10000 µM.

The compound `Cc1cc(=O)[nH]c(NC(N)=Nc2cccc3ccccc23)n1` registered an IC50 of over 10000 µM.

`CCN(CC)CCOC(=O)c1ccc(NC=C2C(=O)CC(C)(C)CC2=O)cc1`: the IC50 is over 10000 µM.

`COc1cccc(Cn2c(=S)[nH]c3ccc(N4CCOCC4)cc3c2=O)c1` yielded an IC50 of 36.2 µM.

Turning to `O=S(=O)(Nc1ccc(C(F)(F)F)cc1)c1c[nH]cn1`, the IC50 was over 10000 µM.

Regarding `Cc1ccc(C2C3=C(CC(C)(C)CC3=O)N(CCN3CCOCC3)C3=C2C(=O)CC(C)(C)C3)cc1`, the IC50 is over 10000 µM.

On to `CC1=C(C(=O)OCC2CCCO2)C(c2ccncc2)C2C(=O)CCCC2=N1` (centres undefined), for which the IC50 amounted to 26.9 µM.

`CCN(CC)c1nc2ccccc2n2cnnc12` gave an IC50 of over 10000 µM.

On to `CCOC(=O)c1cc2c(cn1)[nH]c1ccccc12`, for which the half-maximal inhibitory concentration (IC50) worked out at 49.4 µM.

As to `CC(C)/N=c1/cc2n(-c3ccc(Cl)cc3)c3ccccc3nc-2cc1Nc1ccc(Cl)cc1`, the IC50 worked out at 2.89 µM.

The compound `CN(C)C(=O)Nc1cnc2ccccc2c1` [1,1-dimethyl-3-(3-quinolinyl)urea] showed an IC50 of over 10000 µM.

`CC(C)c1ccc(-c2nc3c([nH]2)c(=O)n(C)c(=O)n3C)cc1` [1,3-dimethyl-8-(4-propan-2-ylphenyl)-7H-purine-2,6-dione]: the IC50 was found to be 21.8 µM.

Compound `CN1CCN(CCNC(=O)c2cc3c(=O)n(C)c4ccccc4c3n2C)CC1` [1,5-dimethyl-N-[2-(4-methyl-1-piperazinyl)ethyl]-4-oxo-2-pyrrolo[3,2-c]quinolinecarboxamide] gave a concentration for half-maximal inhibition (IC50) of 751 µM.

As for `COc1cc2c(C#N)c(N3CCN(c4ccccc4OC)CC3)nc(N)c2c(N)n1` [1,8-diamino-6-methoxy-3-(4-(2-methoxyphenyl)piperazin-1-yl)-2,7-naphthyridine-4-carbonitrile], the IC50 is over 10000 µM.

As to `Cc1nc2cc(NC(=O)NCc3ccco3)ccc2n1C` [1-(1,2-dimethyl-5-benzimidazolyl)-3-(2-furanylmethyl)urea], the IC50 is over 10000 µM.

In the case of `Nc1c(S(=O)(=O)c2cccs2)c2nc3ccccc3nc2n1Cc1ccc2c(c1)OCO2` [1-(1,3-benzodioxol-5-ylmethyl)-3-thiophen-2-ylsulfonyl-2-pyrrolo[3,2-b]quinoxalinamine], the IC50 came out at 31.9 µM.

For `COc1ccc(-c2cc(C(F)(F)F)nc(SCCC(=O)N3CCN4CCCC4C3)n2)cc1` (centres undefined) [1-(3,4,6,7,8,8a-hexahydro-1H-pyrrolo[1,2-a]pyrazin-2-yl)-3-[4-(4-methoxyphenyl)-6-(trifluoromethyl)pyrimidin-2-yl]sulfanyl-propan-1-one], the concentration for half-maximal inhibition (IC50) came out at 376 µM.

`CC(=O)c1cccc(NC(=O)Nc2cccnc2)c1` [1-(3-acetylphenyl)-3-(3-pyridinyl)urea] showed an IC50 of over 10000 µM.

Compound `Cc1cc(-c2ccccc2)nc(N2CCC(C(=O)NC(C)C)CC2)n1` [1-(4-Methyl-6-phenyl-pyrimidin-2-yl)-piperidine-4-carboxylic acid isopropylamide] returned an IC50 of 69.3 µM.

Compound `CCOc1ccc(N2CC(C(=O)OC)CC2=O)cc1` (centres undefined) [1-(4-ethoxyphenyl)-5-oxo-3-pyrrolidinecarboxylic acid methyl ester] had an IC50 of over 10000 µM.

In turn, `Cc1ccccc1CN1CCN(S(=O)(=O)c2ccc(F)cc2)CC1` [1-(4-fluorophenyl)sulfonyl-4-(2-methylbenzyl)piperazine] had an IC50 of over 10000 µM.

As to `Cc1nc2nc(C)c(CCC(=O)N3CCOCC3)c(C)n2n1` [1-(4-morpholinyl)-3-(2,5,7-trimethyl-[1,2,4]triazolo[1,5-a]pyrimidin-6-yl)-1-propanone], the IC50 is over 10000 µM.

For the compound `COc1ccc2c(c1)-c1ccccc1S(=O)(=O)N2C(C)=O` [1-(5,5-diketo-9-methoxy-benzo[c][1,2]benzothiazin-6-yl)ethanone], the 50% inhibitory concentration (IC50) came to 80.2 µM.

In turn, `COc1cc2c(cc1OC)CN(C(=O)CSc1nnc3scc(-c4ccccc4)n13)CC2` [1-(6,7-dimethoxy-3,4-dihydro-1H-isoquinolin-2-yl)-2-[(5-phenyl-3-thiazolo[2,3-c][1,2,4]triazolyl)thio]ethanone] gave an IC50 of 584 µM.

With `Cc1c(NC(=O)C2CCN(S(=O)(=O)c3ccccc3)CC2)c(=O)n(-c2ccccc2)n1C` [1-(benzenesulfonyl)-N-(1,5-dimethyl-3-oxo-2-phenyl-4-pyrazolyl)-4-piperidinecarboxamide], the concentration for half-maximal inhibition (IC50) was over 10000 µM.

For `O=C1C(Cl)=C(NCC2CCCO2)C(=O)N1Cc1ccccc1` (centres undefined) [1-Benzyl-3-chloro-4-[(tetrahydro-furan-2-ylmethyl)-amino]-pyrrole-2,5-dione], the IC50 is over 10000 µM.

In the case of `COc1cc(-c2nc3cnccc3n2C)cc(OC)c1OC` [1-Methyl-2-(3,4,5-trimethoxy-phenyl)-1H-imidazo[4,5-c]pyridine], the IC50 is over 10000 µM.

In turn, `CN(C)C(=O)N1CCC(C(=O)NCc2cccs2)CC1` [1-N,1-N-dimethyl-4-N-(thiophen-2-ylmethyl)piperidine-1,4-dicarboxamide] showed an IC50 of over 10000 µM.

`COCCn1c(C)cc(C(=O)COc2nc3ccccc3nc2C)c1C` [1-[1-(2-methoxyethyl)-2,5-dimethyl-3-pyrrolyl]-2-[(3-methyl-2-quinoxalinyl)oxy]ethanone] came in with an IC50 of 3000 µM.

As for `COc1ccc(CCn2c(N)c(S(=O)(=O)c3cccs3)c3nc4ccccc4nc32)cc1OC` [1-[2-(3,4-dimethoxyphenyl)ethyl]-3-thiophen-2-ylsulfonyl-2-pyrrolo[3,2-b]quinoxalinamine], the IC50 was found to be 105 µM.

On to `O=C1NC(=O)C(CC(=O)N(c2ccccc2)C2(C(=O)NC3CCCC3)CCCCC2)N1` (centres undefined) [1-[2-[2,5-bis(oxidanylidene)imidazolidin-4-yl]ethanoyl-phenyl-amino]-N-cyclopentyl-cyclohexane-1-carboxamide], for which the IC50 was over 10000 µM.

For `Cc1ccc(OCCn2c(C)c(C=Nn3cnnc3)c3ccccc32)cc1` [1-[2-methyl-1-[2-(4-methylphenoxy)ethyl]-3-indolyl]-N-(1,2,4-triazol-4-yl)methanimine], the IC50 is over 10000 µM.

For the compound `CCN(CC)CCCN(Cc1cc2cc3c(cc2[nH]c1=O)OCO3)C(=O)Nc1ccccc1OC` [1-[3-(diethylamino)propyl]-3-(2-methoxyphenyl)-1-[(6-oxidanylidene-5H-[1,3]dioxolo[4,5-g]quinolin-7-yl)methyl]urea], the IC50 came out at 33.7 µM.

`FC(F)(F)c1cc(-c2ccco2)nc(-n2nnc3ccccc32)n1` [1-[4-(2-furanyl)-6-(trifluoromethyl)-2-pyrimidinyl]benzotriazole] came in with a concentration for half-maximal inhibition (IC50) of 11.2 µM.

For the compound `CCc1c(C)c(C#N)c2nc3ccccc3n2c1Nc1c(C)n(C)n(-c2ccccc2)c1=O` [1-[(1,5-dimethyl-3-oxidanylidene-2-phenyl-pyrazol-4-yl)amino]-2-ethyl-3-methyl-pyrido[1,2-a]benzimidazole-4-carbonitrile], the IC50 was over 10000 µM.

`COc1ccc(C(c2nnnn2CC2CCCO2)N2CCN(c3ccccc3)CC2)cc1` (centres undefined) [1-[(4-methoxyphenyl)-[1-(2-oxolanylmethyl)-5-tetrazolyl]methyl]-4-phenylpiperazine] came in with an IC50 of over 10000 µM.

As for `Cc1ccc2cc3cc(C(=O)N4CCCCCC4)oc3nc2c1` [1-azepanyl-(7-methyl-2-furo[2,3-b]quinolinyl)methanone], the IC50 turned out to be 58.1 µM.

In turn, `CCn1cc(C(=O)NCc2ccco2)c(=O)c2cc(F)c(N3CCN(C(=O)c4ccco4)CC3)cc21` [1-ethyl-6-fluoranyl-7-[4-(furan-2-ylcarbonyl)piperazin-1-yl]-N-(furan-2-ylmethyl)-4-oxidanylidene-quinoline-3-carboxamide] returned an IC50 of 16.7 µM.

`COCCn1cc(C(=O)NCCCN2CCC(C)CC2)c2c3ccccc3n(C)c2c1=O` [1-keto-2-(2-methoxyethyl)-9-methyl-N-[3-(4-methylpiperidino)propyl]-beta-carboline-4-carboxamide] yielded an IC50 of 27.2 µM.

Still in this experiment, the particulars now being: inactive by the depositor's call.
In the case of `CCn1nc(-c2ccccc2)nc2c(=O)n(C)c(=O)nc1-2` [1-Ethyl-6-methyl-3-phenyl-1H-pyrimido[5,4-e][1,2,4]triazine-5,7-dione], the concentration for half-maximal inhibition (IC50) was determined as 20 µM.

`Clc1cccc(-c2ccc(C=Nn3cnnc3)o2)c1` [1-[5-(3-chlorophenyl)-2-furanyl]-N-(1,2,4-triazol-4-yl)methanimine] gave an IC50 of 101 µM.

As for `CCn1nc(-c2cccs2)nc2c(=O)n(C)c(=O)nc1-2` [1-ethyl-6-methyl-3-thiophen-2-yl-pyrimido[5,4-e][1,2,4]triazine-5,7-dione], the IC50 was found to be 4.73 µM.

As a reminder, the IC50 is the midpoint of a concentration-inhibition curve. High values mean a need for much substance, low ones inhibition by little substance.
